Source: US5824540A, “Pseudomonas putida strain with dioxygenase activity” (Merck & Co., Inc., priority 1996, dated 1998)

System: P. putida F1
Assay: Growth of P. putida F1 test tube cultures in MMC medium with ICR 191 (mutation procedure 1)
Type: cell-based, Pseudomonas putida
Details: 16 to 18 hour incubation, 30° C., dark
Protocol: In procedure 1, cells were grown overnight in TSB at 30° C. and diluted 10^-4 with phosphate buffer (100 mM, pH 7.2). Several 18×150 mm test tubes containing 3 ml of MMC medium plus 0 (control), 10, 20, 30, 40, 50, 75, or 100 mg/l ICR 191 were inoculated with 0.1 ml of the diluted inoculum. Test tube cultures were incubated in the dark at 30° C. with 220 RPM agitation. […] The cells from 20 mg/l ICR 191 culture were harvested by centrifugation, washed twice with phosphate buffer.

With COc1ccc2nc3cc(Cl)ccc3c(NCCCNCCCl)c2c1 [ICR 191] the effect on growth (10 mg/l ICR 191) was “no detectable effect on growth”, the “level of growth relative to control” value (20 mg/l ICR 191) was “approximately half that of the control” and the growth of culture (30 mg/l ICR 191) was “a trace of growth”. For the same compound, the growth of culture (ICR 191 concentrations above 30 mg/l) was “completely inhibited growth”.
